Data published in ChEMBL document CHEMBL4261637, “Discovery of a non-toxic [1,2,4]triazolo[1,5-a]pyrimidin-7-one (WS-10) that modulates ABCB1-mediated multidrug resistance (MDR)” (Bioorg Med Chem, 2018).
Active and inactive are the calls of the source. The calls are words filed in the database; no cut-off is given here.

Legend:
TE-1 = assay: Cytotoxicity against human TE1 cells at 10 to 20 uM after 72 hrs by MTT assay; format: cell-based; details: te-1, 72 h
SGC-7901 = assay: Cytotoxicity against human SGC7901 cells at 10 to 20 uM after 72 hrs by MTT assay; format: cell-based; details: sgc-7901, 72 h
A549 = assay: Cytotoxicity against human A549 cells at 10 to 20 uM after 72 hrs by MTT assay; format: cell-based; details: a549, 72 h
ECa-109 cell line = assay: Cytotoxicity against human EC109 cells at 10 to 20 uM after 72 hrs by MTT assay; format: cell-based; details: eca-109, 72 h
MGC-803 = assay: Cytotoxicity against human MGC803 cells at 10 to 20 uM after 72 hrs by MTT assay; format: cell-based; details: mgc-803, 72 h
SW-620 [1] = assay: Potentiation of paclitaxel-induced cytotoxicity in human SW620 cells assessed as fold reduction in paclitaxel IC50 at 10 uM after 72 hrs by MTT assay relative to paclitaxel alone; format: functional
SW-620 [2] = assay: Potentiation of paclitaxel-induced cytotoxicity in human SW620 cells assessed as fold reduction in paclitaxel IC50 at 20 uM after 72 hrs by MTT assay relative to paclitaxel alone; format: functional
SW-620 [3] = assay: Potentiation of doxorubicin-induced cytotoxicity in human SW620 cells assessed as fold reduction in doxorubicin IC50 at 10 uM after 72 hrs by MTT assay relative to doxorubicin alone; format: functional
SW-620 [4] = assay: Potentiation of doxorubicin-induced cytotoxicity in human SW620 cells assessed as fold reduction in doxorubicin IC50 at 20 uM after 72 hrs by MTT assay relative to doxorubicin alone; format: functional
SW-620 [5] = assay: Potentiation of cisplatin-induced cytotoxicity in human SW620 cells assessed as fold reduction in cisplatin IC50 at 10 uM after 72 hrs by MTT assay relative to cisplatin alone; format: functional
SW-620 [6] = assay: Potentiation of cisplatin-induced cytotoxicity in human SW620 cells assessed as fold reduction in cisplatin IC50 at 20 uM after 72 hrs by MTT assay relative to cisplatin alone; format: functional
HEK-293T [7] = assay: Potentiation of paclitaxel-induced cytotoxicity in human HEK293T/NC cells assessed as fold reduction in paclitaxel IC50 at 10 uM after 72 hrs by MTT assay relative to paclitaxel; format: functional
HEK-293T [8] = assay: Potentiation of paclitaxel-induced cytotoxicity in human HEK293T/NC cells assessed as fold reduction in paclitaxel IC50 at 20 uM after 72 hrs by MTT assay relative to paclitaxel; format: functional
HEK-293T [9] = assay: Potentiation of doxorubicin-induced cytotoxicity in human HEK293T/NC cells assessed as fold reduction in doxorubicin IC50 at 10 uM after 72 hrs by MTT assay relative to doxorubicin; format: functional
HEK-293T [10] = assay: Potentiation of doxorubicin-induced cytotoxicity in human HEK293T/NC cells assessed as fold reduction in doxorubicin IC50 at 20 uM after 72 hrs by MTT assay relative to doxorubicin; format: functional
HEK-293T [11] = assay: Potentiation of cisplatin-induced cytotoxicity in human HEK293T/NC cells assessed as fold reduction in cisplatin IC50 at 10 uM after 72 hrs by MTT assay relative to cisplatin; format: functional
[12] = biological target: T1, ATP-dependent translocase ABCB1 (Homo sapiens, UniProt P08183); assay: Inhibition of ABCB1 in human SW620/AD300 cells assessed as intracellular accumulation of paclitaxel at 10 to 20 uM after 72 hrs by UPLC analysis; format: cell-based
SW620/AD300 [13] = assay: Effect on ABCB1 expression in human SW620/AD300 cells at 20 uM up to 96 hrs by Western blot analysis; format: functional, cell-based
SW620/AD300 [14] = assay: Effect on ABCB1 expression in human SW620/AD300 cells at 10 to 20 uM by Western blot analysis; format: functional, cell-based
SW620/AD300 [15] = assay: Effect on subcellular localization of ABCB1 in human SW620/AD300 cells at 10 to 20 uM after 72 hrs by Hoechst 33342 staining-based immunofluorescence assay; format: functional, cell-based
[16] = biological target: T1, ATP-dependent translocase ABCB1; assay: Binding affinity to ABCB1 in human SW620/AD300 cells assessed as thermal stabilization incubated for 30 mins at 43 to 80 degC by CETSA; format: cell-based; details: 0.5 h
SW-620 [17] = assay: Potentiation of paclitaxel-induced cytotoxicity in human SW620 cells assessed as fold reduction in paclitaxel IC50 at 4 uM after 72 hrs by MTT assay relative to paclitaxel alone; format: functional
SW-620 [18] = assay: Potentiation of doxorubicin-induced cytotoxicity in human SW620 cells assessed as fold reduction in doxorubicin IC50 at 4 uM after 72 hrs by MTT assay relative to doxorubicin alone; format: functional
SW-620 [19] = assay: Potentiation of cisplatin-induced cytotoxicity in human SW620 cells assessed as fold reduction in cisplatin IC50 at 4 uM after 72 hrs by MTT assay relative to cisplatin alone; format: functional
HEK-293T [20] = assay: Potentiation of paclitaxel-induced cytotoxicity in human HEK293T/NC cells assessed as fold reduction in paclitaxel IC50 at 4 uM after 72 hrs by MTT assay relative to paclitaxel; format: functional
HEK-293T [21] = assay: Potentiation of doxorubicin-induced cytotoxicity in human HEK293T/NC cells assessed as fold reduction in doxorubicin IC50 at 4 uM after 72 hrs by MTT assay relative to doxorubicin; format: functional
HEK-293T [22] = assay: Potentiation of cisplatin-induced cytotoxicity in human HEK293T/NC cells assessed as fold reduction in cisplatin IC50 at 4 uM after 72 hrs by MTT assay relative to cisplatin; format: functional

T1 sequence (P08183 whole entry): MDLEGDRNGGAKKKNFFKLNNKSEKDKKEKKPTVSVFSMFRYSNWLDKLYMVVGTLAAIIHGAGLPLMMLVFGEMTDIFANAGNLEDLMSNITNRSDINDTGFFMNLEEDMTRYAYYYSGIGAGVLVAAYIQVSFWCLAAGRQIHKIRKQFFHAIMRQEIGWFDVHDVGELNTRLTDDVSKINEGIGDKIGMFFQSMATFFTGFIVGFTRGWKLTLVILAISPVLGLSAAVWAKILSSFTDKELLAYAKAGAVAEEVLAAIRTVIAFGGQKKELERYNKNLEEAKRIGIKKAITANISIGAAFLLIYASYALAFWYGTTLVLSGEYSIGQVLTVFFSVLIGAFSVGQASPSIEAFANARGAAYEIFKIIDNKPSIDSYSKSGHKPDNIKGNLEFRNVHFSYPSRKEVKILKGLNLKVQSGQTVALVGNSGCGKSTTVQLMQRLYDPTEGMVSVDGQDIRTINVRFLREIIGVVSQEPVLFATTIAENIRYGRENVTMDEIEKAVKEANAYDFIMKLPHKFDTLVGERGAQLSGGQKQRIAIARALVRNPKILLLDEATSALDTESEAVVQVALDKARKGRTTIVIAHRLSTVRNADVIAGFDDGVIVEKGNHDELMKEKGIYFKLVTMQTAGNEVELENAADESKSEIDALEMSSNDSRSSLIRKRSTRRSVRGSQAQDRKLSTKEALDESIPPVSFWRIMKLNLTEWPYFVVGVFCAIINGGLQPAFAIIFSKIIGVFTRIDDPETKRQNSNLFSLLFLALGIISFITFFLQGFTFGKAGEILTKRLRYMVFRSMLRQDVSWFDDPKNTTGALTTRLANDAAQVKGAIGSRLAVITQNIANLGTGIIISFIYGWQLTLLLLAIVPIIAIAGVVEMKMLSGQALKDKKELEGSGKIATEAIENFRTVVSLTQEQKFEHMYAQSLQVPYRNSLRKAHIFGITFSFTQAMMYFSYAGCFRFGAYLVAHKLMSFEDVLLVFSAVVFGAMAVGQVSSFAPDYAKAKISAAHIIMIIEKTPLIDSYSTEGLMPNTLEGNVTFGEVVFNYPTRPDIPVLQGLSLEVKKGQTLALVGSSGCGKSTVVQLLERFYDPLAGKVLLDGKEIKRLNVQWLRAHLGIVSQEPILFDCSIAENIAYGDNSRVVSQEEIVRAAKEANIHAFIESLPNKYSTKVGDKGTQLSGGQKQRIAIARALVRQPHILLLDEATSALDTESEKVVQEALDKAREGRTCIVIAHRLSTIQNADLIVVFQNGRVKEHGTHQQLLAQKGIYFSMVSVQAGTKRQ

In the case of `O=c1cc(-c2ccccc2)[nH]c2nc(SCc3nc4ccccc4[nH]3)nn12`, the Activity (TE-1) was “Non-Toxic”, the Activity (SGC-7901) was “Non-Toxic” and the Activity (A549) was “Non-Toxic”. The Activity (ECa-109 cell line) was “Non-Toxic”, the Activity (MGC-803) was “Non-Toxic” and the “Ratio IC50” value (SW-620 [1]) was 1.2. For the same compound, the “Ratio IC50” value (SW-620 [2]) was 0.81, the “Ratio IC50” value (SW-620 [3]) was 1.17 and the “Ratio IC50” value (SW-620 [4]) was 1.14. For the same compound, the “Ratio IC50” value (SW-620 [5]) was 1.07, the “Ratio IC50” value (SW-620 [6]) was 0.97 and the “Ratio IC50” value (HEK-293T [7]) was 0.87. The “Ratio IC50” value (HEK-293T [8]) was 0.83, the “Ratio IC50” value (HEK-293T [9]) was 1.14 and the “Ratio IC50” value (HEK-293T [10]) was 1.08. For the same compound, the “Ratio IC50” value (HEK-293T [11]) was 1.04, the “inhibition (INH)” value [12] was “Active” and the Activity (SW620/AD300 [13]) was “inactive”. The Activity (SW620/AD300 [14]) was “inactive”, the Activity (SW620/AD300 [15]) was “inactive” and the Activity [16] was “Active”.
In the case of `COc1ccc(CCN(C)CCCC(C#N)(c2ccc(OC)c(OC)c2)C(C)C)cc1OC` (configuration not stated), the “Ratio IC50” value (SW-620 [17]) was 1.29, the “Ratio IC50” value (SW-620 [18]) was 1.18 and the “Ratio IC50” value (SW-620 [19]) was 1.1. For the same compound, the “Ratio IC50” value (HEK-293T [20]) was 0.84, the “Ratio IC50” value (HEK-293T [21]) was 1.07 and the “Ratio IC50” value (HEK-293T [22]) was 0.89.
